pIC50: −log10 of the molar value. Values after ≈ are worked out from the molar mass of the structure shown. Bounds are passed on as bounds.

For one data set, the target named is Epidermal growth factor receptor (Homo sapiens, UniProt P00533). In words: Inhibition of EGFR (unknown origin) by Z -LYTE assay.
Epidermal growth factor receptor, sequence (P00533 whole entry): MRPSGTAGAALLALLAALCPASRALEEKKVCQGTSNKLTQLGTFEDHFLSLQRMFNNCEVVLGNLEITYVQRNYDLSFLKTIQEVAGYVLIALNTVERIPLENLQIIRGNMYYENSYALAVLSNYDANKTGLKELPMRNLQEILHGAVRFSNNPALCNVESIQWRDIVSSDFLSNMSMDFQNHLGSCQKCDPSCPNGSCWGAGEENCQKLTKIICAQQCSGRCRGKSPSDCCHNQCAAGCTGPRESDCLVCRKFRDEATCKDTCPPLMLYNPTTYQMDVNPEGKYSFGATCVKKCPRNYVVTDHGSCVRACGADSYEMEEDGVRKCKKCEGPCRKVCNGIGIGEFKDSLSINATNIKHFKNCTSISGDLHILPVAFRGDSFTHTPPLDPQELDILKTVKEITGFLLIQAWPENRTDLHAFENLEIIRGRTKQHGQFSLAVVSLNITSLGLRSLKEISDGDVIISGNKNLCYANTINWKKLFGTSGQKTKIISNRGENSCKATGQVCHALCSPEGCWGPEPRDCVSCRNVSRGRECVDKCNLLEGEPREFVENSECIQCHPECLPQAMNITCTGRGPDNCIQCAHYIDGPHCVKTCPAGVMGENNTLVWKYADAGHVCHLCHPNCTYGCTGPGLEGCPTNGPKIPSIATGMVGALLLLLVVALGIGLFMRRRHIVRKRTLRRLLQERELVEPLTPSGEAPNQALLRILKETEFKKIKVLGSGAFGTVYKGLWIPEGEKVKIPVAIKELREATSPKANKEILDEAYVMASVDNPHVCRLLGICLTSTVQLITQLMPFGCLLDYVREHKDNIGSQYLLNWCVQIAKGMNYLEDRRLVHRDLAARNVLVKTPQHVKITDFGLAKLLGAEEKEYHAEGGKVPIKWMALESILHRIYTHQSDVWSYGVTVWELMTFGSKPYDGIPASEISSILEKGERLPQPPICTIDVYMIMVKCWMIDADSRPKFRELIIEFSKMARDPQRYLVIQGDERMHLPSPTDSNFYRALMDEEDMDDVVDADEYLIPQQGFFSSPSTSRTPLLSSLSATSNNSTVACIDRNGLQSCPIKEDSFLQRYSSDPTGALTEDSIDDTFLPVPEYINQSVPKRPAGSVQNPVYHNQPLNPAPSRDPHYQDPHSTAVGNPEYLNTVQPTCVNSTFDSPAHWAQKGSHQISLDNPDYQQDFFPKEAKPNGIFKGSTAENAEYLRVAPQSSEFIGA
Details: not given
The term pIC50 denotes the negative decadic logarithm of the IC50, by convention in mol/L. Higher therefore signals a small IC50. Consider `COc1cccc(OC)c1-c1cc2c(N[C@H](C)c3ccccc3)ncnc2s1`, for which the negative-log IC50 (pIC50) is 8.70. Still for that read-out and setting: for `COc1cc(F)ccc1-c1cc2c(N[C@H](C)c3ccccc3)ncnc2s1` the value was 8.22; for `COc1c(C=O)cccc1-c1cc2c(N[C@H](C)c3ccccc3)ncnc2s1`, 7.68; for `COc1cc(C=O)ccc1-c1cc2c(Nc3ccc(F)c(Cl)c3)ncnc2s1`, 8.30.

For `COC(=O)c1ccc(-c2cc3c(N[C@H](C)c4ccccc4)ncnc3s2)c(OC)c1`, the pIC50 is 7.70. The same measure, in the same setting: for `C[C@@H](Nc1ncnc2sc(-c3ccc(C(=O)O)cc3)cc12)c1ccccc1` the value was 7.72; for `COc1c(CO)cccc1-c1cc2c(N[C@H](C)c3ccccc3)ncnc2s1`, 8.82. The same measure, in the same setting: for `COc1cc(C(N)=O)ccc1-c1cc2c(N[C@H](C)c3ccccc3)ncnc2s1` the value was 8.70. On the same count and under the same terms, in the case of `C[C@@H](Nc1ncnc2sc(-c3cccc(C(N)=O)c3)cc12)c1ccccc1` it was 8.30; in that of `C[C@@H](Nc1ncnc2sc(-c3cccc(C=O)c3)cc12)c1ccccc1`, 8.22; in that of `C[C@@H](Nc1ncnc2sc(-c3cccc(C(=O)NCCN(C)C)c3)cc12)c1ccccc1`, 9.05. In turn, `C[C@@H](Nc1ncnc2sc(-c3cccc(C(=O)O)c3)cc12)c1ccccc1` gave a pIC50 of 8.10.

`C[C@@H](Nc1ncnc2sc(-c3ccc(C(N)=O)cc3)cc12)c1ccccc1` had a pIC50 of 8.15.

In turn, `C[C@@H](Nc1ncnc2sc(-c3ccc(S(C)(=O)=O)cc3)cc12)c1ccccc1` gave a pIC50 of 7.39. Same read-out and setting: for `COc1ccc(C=O)cc1-c1cc2c(N[C@H](C)c3ccccc3)ncnc2s1` the value was 8.52; for `C[C@@H](Nc1ncnc2sc(-c3ccc(C=O)cc3F)cc12)c1ccccc1`, 7.23.

The compound `COc1cc(C(=O)NCCN(C)C)cc(OC)c1-c1cc2c(N[C@H](C)c3ccccc3)ncnc2s1` gave a pIC50 of 9.40.

For the compound `COc1cccc(-c2cc3c(N[C@H](C)c4ccccc4)ncnc3s2)c1OC`, the pIC50 is 7.89.

As to `OCc1ccc(-c2cc3c(Nc4ccccc4)ncnc3s2)cc1`, the negative-log IC50 (pIC50) was 7.68. The same measure, in the same setting: for `C[C@@H](Nc1ncnc2sc(-c3ccc(CO)cc3F)cc12)c1ccccc1` the value was 7.89.

The compound `COc1c(C(=O)NCCN(C)C)cccc1-c1cc2c(N[C@H](C)c3ccccc3)ncnc2s1` showed a negative-log IC50 (pIC50) of 8.52. Same read-out and setting: for `COc1cc(CO)ccc1-c1cc2c(NCc3ccccc3)ncnc2s1` the value was 8.30.

The compound `OC[C@@H](Nc1ncnc2sc(-c3ccccc3)cc12)c1ccccc1` showed a negative logarithm of the IC50 (pIC50) of 8.05. Same read-out and setting: in the case of `COc1cc(C(=O)NCCN(C)C)ccc1-c1cc2c(N[C@H](C)c3ccccc3)ncnc2s1` it was 9.30; in that of `OCc1cccc(-c2cc3c(N[C@H](CO)c4ccccc4)ncnc3s2)c1`, 8.52. Same read-out and setting: in the case of `COc1ccc(CO)cc1-c1cc2c(N[C@H](C)c3ccccc3)ncnc2s1` it was 8.30. On the same count and under the same terms, for `COc1cc(C=O)ccc1-c1cc2c(NCc3ccccc3)ncnc2s1` the value was 8.22; for `COC(=O)c1cc(OC)c(-c2cc3c(N[C@H](C)c4ccccc4)ncnc3s2)c(OC)c1`, 8.40.

Turning to `COC(=O)c1ccc(OC)c(-c2cc3c(N[C@H](C)c4ccccc4)ncnc3s2)c1`, the pIC50 was 8.15. Regarding `C[C@@H](Nc1ncnc2sc(-c3cccc(S(C)(=O)=O)c3)cc12)c1ccccc1`, the pIC50 was 7.59.

The compound `COc1cccc(OC)c1-c1cc2c(N[C@H](CO)c3ccccc3)ncnc2s1` gave a pIC50 of 9.05. The same measure, in the same setting: in the case of `OCc1ccc(-c2cc3c(NCc4ccccc4)ncnc3s2)cc1` it was 7.32; in that of `COC(=O)c1cccc(-c2cc3c(N[C@H](C)c4ccccc4)ncnc3s2)c1OC`, 8.05.

Tested on in another data set: not listed separately
In words: Intrinsic clearance in human liver microsomes at 3 uM by LC-MS/MS analysis. Type of data set: ADME. The note with it: read-out: CLH. Background: Liver microsomes are a subcellular fraction often used to study metabolism.
On to `COc1cc(C(=O)NCCN(C)C)cc(OC)c1-c1cc2c(N[C@H](C)c3ccccc3)ncnc2s1`, for which the microsomal CLint at 3 µM was 9.7 µL/min/mg. Still for that read-out and setting: in the case of `COc1cc(C(=O)NCCN(C)C)ccc1-c1cc2c(N[C@H](C)c3ccccc3)ncnc2s1` it was 6.1 µL/min/mg.

As to `COc1cccc(OC)c1-c1cc2c(N[C@H](CO)c3ccccc3)ncnc2s1`, the microsomal CLint at 3 µM was found to be 41 µL/min/mg.

Tested on in a further data set: not listed separately
Description: Aqueous solubility of compound in 0.01 M PBS buffer at pH 7.4 after 2 hrs by turbidimetric assay. Type of data set: physicochemical.
Details: not given
Broadly, the kinetic solubility is the concentration staying in solution when a stock, usually in DMSO, is diluted into the medium. The compound `C[C@@H](Nc1ncnc2sc(-c3cccc(C(=O)NCCN(C)C)c3)cc12)c1ccccc1` registered a kinetic solubility at 2 h above 100 µM.

Consider `COc1cc(C(=O)NCCN(C)C)cc(OC)c1-c1cc2c(N[C@H](C)c3ccccc3)ncnc2s1`, for which the solubility (kinetic) at 2 h was 65 µM (≈ 32.9 µg/mL). Still for that read-out and setting: for `COc1cc(C(=O)NCCN(C)C)ccc1-c1cc2c(N[C@H](C)c3ccccc3)ncnc2s1` the value was above 100 µM.

Tested on in a further data set: not listed separately
Description: Half-life in human liver microsomes at 3 uM by LC-MS/MS analysis. The data set is classed as ADME.
Details: not given
The term half-life denotes the time needed for the level to fall by half in the phase considered. Lower therefore signals rapid decline. `C[C@@H](Nc1ncnc2sc(-c3cccc(C(=O)NCCN(C)C)c3)cc12)c1ccccc1` came in with a half-life at 3 µM of 1.58 h. Same read-out and setting: for `COc1cc(C(=O)NCCN(C)C)cc(OC)c1-c1cc2c(N[C@H](C)c3ccccc3)ncnc2s1` the value was 2.37 h. As for `COc1cc(C(=O)NCCN(C)C)ccc1-c1cc2c(N[C@H](C)c3ccccc3)ncnc2s1`, the half-life at 3 µM is 3.78 h. As for `COc1cccc(OC)c1-c1cc2c(N[C@H](CO)c3ccccc3)ncnc2s1`, the half-life at 3 µM was 0.567 h.

Tested on in another data set: not listed separately
In words: Toxicity in zebrafish embryo assessed as survival for 3.5 days. Type of data set: organism-based, Danio rerio. The note with it: in vivo.
Broadly, the LC50 is the concentration that kills 50% of the test population. In the case of `COc1cc(C(=O)NCCN(C)C)cc(OC)c1-c1cc2c(N[C@H](C)c3ccccc3)ncnc2s1`, the LC50 at 84 h stood at 15000 nM. On the same count and under the same terms, for `COc1cccc(OC)c1-c1cc2c(N[C@H](CO)c3ccccc3)ncnc2s1` the value was 18000 nM.

Tested on in another data set: not listed separately
Description: Toxicity in zebrafish embryo assessed as morphological defects for 3.5 days. Type of data set: organism-based, Danio rerio.
Details: not given
Broadly, the EC50 is the concentration that produces a half-maximal response. In the case of `COc1cccc(OC)c1-c1cc2c(N[C@H](CO)c3ccccc3)ncnc2s1`, the EC50 at 3.5 days is 12000 nM.

The species named for a further data set is Danio rerio. In words: Toxicity in zebrafish embryo assessed mortality measured for 24 hrs. The data set is classed as organism-based. The note with it: in vivo.
Consider `COc1cc(C(=O)NCCN(C)C)cc(OC)c1-c1cc2c(N[C@H](C)c3ccccc3)ncnc2s1`, for which the Activity entry was “Toxic”.

The species entered for the next data set is Danio rerio. In words: Toxicity in zebrafish embryo assessed mortality after 50 to 70 hrs. The data set is classed as organism-based. The following applies: in vivo.
`COc1cccc(OC)c1-c1cc2c(N[C@H](CO)c3ccccc3)ncnc2s1`: the Activity result was “Toxic”.

The next data set deals with Danio rerio. In words: Toxicity in zebrafish embryo assessed as cardiac oedema. The data set is classed as organism-based. The note with it: in vivo.
For `COc1cccc(OC)c1-c1cc2c(N[C@H](CO)c3ccccc3)ncnc2s1`, the Activity result is reported as “Toxic”.

For another data set, the species on record is Danio rerio. In words: Toxicity in zebrafish embryo assessed as blood circulation defects. The data set is classed as organism-based. The following applies: in vivo.
Turning to `COc1cccc(OC)c1-c1cc2c(N[C@H](CO)c3ccccc3)ncnc2s1`, the Activity entry is listed as “Toxic”.

The species named for the next data set is Danio rerio. Description: Toxicity in zebrafish embryo assessed as kinked tail. Type of data set: organism-based. The note with it: in vivo.
As to `COc1cccc(OC)c1-c1cc2c(N[C@H](CO)c3ccccc3)ncnc2s1`, the Activity result is recorded as “Toxic”.

A further data set is filed under the species Danio rerio. Description: Toxicity in zebrafish embryo assessed as effect on morphology at <12.5 uM. Type of data set: organism-based. The note with it: in vivo.
In the case of `COc1cc(C(=O)NCCN(C)C)cc(OC)c1-c1cc2c(N[C@H](C)c3ccccc3)ncnc2s1`, the Activity result is listed as “Non-toxic”.

Tested on in the next data set: not listed separately
In words: in vitro. The following applies: human, Caco-2.
Description: Efflux ratio of permeability from basolateral to apical side over apical to basolateral side in human Caco2 cells at 10 uM by LC-MS/MS analysis
As a reminder, the efflux ratio is a quotient of directional permeabilities that is used to spot active efflux. As for `C[C@@H](Nc1ncnc2sc(-c3cccc(C(=O)NCCN(C)C)c3)cc12)c1ccccc1`, the efflux ratio at 10 µM was determined as 8.9. With `COc1cc(C(=O)NCCN(C)C)cc(OC)c1-c1cc2c(N[C@H](C)c3ccccc3)ncnc2s1`, the efflux ratio at 10 µM was 40. Take `COc1cc(C(=O)NCCN(C)C)ccc1-c1cc2c(N[C@H](C)c3ccccc3)ncnc2s1`: the efflux ratio at 10 µM came out at 18.

Source of the values: ChEMBL document CHEMBL3758163, “Extended structure-activity study of thienopyrimidine-based EGFR inhibitors with evaluation of drug-like properties” (Eur J Med Chem, 2016).
